Values of other authors in US10028967B2, “Medicament” (Symrise AG, priority 2014, dated 2018).

Settings: oral phenylephrine, compared to intravenous pseudoephedrine; reduced and variable

bioavailability: up to 38%
Structure (SMILES): CNC[C@H](O)c1cccc(O)c1 [Phenylephrine]
